Legend:
[1] = target: T1, Histamine H1-receptor (peripheral) (Cavia porcellus, UniProt P31389); experiment: Histamine H1-receptor (peripheral) binding assay, [3H]pyrilamine, guinea-pig lung membranes; conditions: 1 nM [3H]pyrilamine
T1 construct: Aliquots of guinea-pig lung membrane preparations corresponding to 800 μg protein are incubated; from tissue; host or cells: guinea-pig lung membranes
Experimental: Histamine H1-receptor (peripheral) binding assays were performed according to the literature procedure (ref: Dini, S., et al, Agents and Actions, 1991, 33:181-184). Aliquots of guinea-pig lung membrane preparations corresponding to 800 μg protein are incubated for 15 min at 22° C. in 500 μl of 50 mM Na2HPO4/KH2PO4 buffer (pH 7.5) containing 1 nM [^3H]pyrilamine and increasing concentrations of the competing drugs. Nonspecific binding is determined in the presence of 100 μM triprolidine. After incubation, the samples are filtered rapidly under vacuum through glass fiber filters (GF/B, Whatman) and rinsed several times with ice-cold 50 mM Na2HPO4/KH2PO4 using a cell harvester (Brandel). Bound radioactivity is measured with a scintillation counter (LS 6000, Beckman) using a liquid scintillation cocktail (Formula 989, Packard).The reference compound for this assay is pyrilamine.
The results are expressed as percent of control specific binding and as a percent inhibition of control specific binding obtained in the presence of the tested compounds. IC50 values (concentration causing a half-maximal inhibition of control activity) and Hill coefficients (nH) are determined by non-linear regression analysis of the concentration-response curves. These parameters are obtained by Hill equation curve fitting.

5-LO = target: T2, 5-LO (UniProt P09917); experiment: 5-LO enzyme assay (RIA quantitation of 5-HETE); assay type: biochemical; conditions: Procedure A (RBL-1 cells) or B (HL-60 cells), not given; read-out: Inhibition of 5-LO: IC50
T2 sequence (P09917 1-674): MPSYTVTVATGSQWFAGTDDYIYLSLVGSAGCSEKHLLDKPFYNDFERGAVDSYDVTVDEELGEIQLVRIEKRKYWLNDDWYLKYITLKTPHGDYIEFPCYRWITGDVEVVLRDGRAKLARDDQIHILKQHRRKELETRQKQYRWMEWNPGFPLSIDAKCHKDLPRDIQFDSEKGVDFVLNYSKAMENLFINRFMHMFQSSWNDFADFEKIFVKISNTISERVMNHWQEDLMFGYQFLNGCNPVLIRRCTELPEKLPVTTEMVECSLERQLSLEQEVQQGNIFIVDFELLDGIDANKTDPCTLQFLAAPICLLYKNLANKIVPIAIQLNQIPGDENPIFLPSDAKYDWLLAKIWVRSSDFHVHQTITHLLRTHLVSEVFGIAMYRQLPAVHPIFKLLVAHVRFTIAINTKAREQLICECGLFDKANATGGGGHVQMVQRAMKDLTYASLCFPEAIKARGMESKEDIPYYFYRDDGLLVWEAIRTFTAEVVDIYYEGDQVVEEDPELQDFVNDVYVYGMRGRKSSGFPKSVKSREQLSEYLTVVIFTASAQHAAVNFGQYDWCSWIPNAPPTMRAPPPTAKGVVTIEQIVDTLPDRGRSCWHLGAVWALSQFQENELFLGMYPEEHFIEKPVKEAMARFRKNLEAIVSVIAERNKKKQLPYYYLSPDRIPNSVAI
Experimental: 5-LO enzyme assays (radio-immuno assays (RIA)) were performed according to literature procedures (ref: (a) Egan, R. W., and Gale, P. H., J. Biol. Chem. 1985, 260:11554-11559; (b) Shimizu, T., Rdamark, O., and Samuelsson, B. Proc. Natl. Acad. Sci. USA, 1984, 81:689-693); (c) Coffey, M. et al., J. Biol. Chem. 1992, 267: 570-576) using commercially available kits or reagents.
Tissue/cell sources: Rat basophilic leukemia cells (RBL-1);
Substrate: Arachidonic acid (AA) at 14 μM;
Reaction: AA→5-HPETE→5-HETE, incubation at 25° C. for 8 min;
Method: RIA quantitation of 5-HETE, reference compound NGDA (nordihydroquaiaretic acid).
Tissue/cell sources: Human differentiated HL-60 cells;
Substrate: Arachidonic acid (AA) at 0.4 μM;
Reaction: AA→5-HPETE→5-HETE, incubation at 37° C. for 10 min;
The results are expressed as percent of control activity and as a percent inhibition of control activity obtained in the presence of the tested compounds.
IC50 values (concentration causing a half-maximal inhibition of control activity) and Hill coefficients (nH) are determined by non-linear regression analysis of the concentration-response curves. These parameters are obtained by Hill equation curve fitting.

[2] = system: human differentiated HL-60 cells; experiment: LTB4 secretion assay in differentiated HL-60 cells (A23187, EIA); assay type: cell-based; conditions: 0.5 h, A23187 5 uM, 37 C, 30 min, read-out: Inhibition of LTB4 secretion: IC50
Experimental: The assays were performed using human differentiated HL-60 cells using NDGA as reference compound following the literature procedure (Bennett, C. F. et al, Biochem. J., 1993, 289: 33-39). Substrate A23187 (5 uM) was incubated along with test compound in HL-60 cells at 37 C for 30 min. Reaction product LTB4 was detected by enzymeimmuno assays (EIA) using commercially available kits and a microplate reader.

T1 sequence (P31389 whole entry): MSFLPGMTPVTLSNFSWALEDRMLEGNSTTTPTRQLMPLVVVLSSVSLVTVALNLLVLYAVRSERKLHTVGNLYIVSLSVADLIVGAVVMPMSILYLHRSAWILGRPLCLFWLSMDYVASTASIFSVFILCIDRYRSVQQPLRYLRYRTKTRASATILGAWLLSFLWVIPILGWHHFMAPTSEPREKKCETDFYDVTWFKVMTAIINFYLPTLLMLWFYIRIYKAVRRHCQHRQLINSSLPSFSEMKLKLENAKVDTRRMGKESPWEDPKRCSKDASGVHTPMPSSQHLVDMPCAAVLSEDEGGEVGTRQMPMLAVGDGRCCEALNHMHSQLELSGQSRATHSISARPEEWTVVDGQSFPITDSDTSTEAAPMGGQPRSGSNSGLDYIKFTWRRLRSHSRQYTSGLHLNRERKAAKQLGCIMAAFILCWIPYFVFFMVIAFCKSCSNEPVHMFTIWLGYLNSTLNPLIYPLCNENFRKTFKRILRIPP

Structure (SMILES)	IC50 [1] [µM]	IC50 (5-LO) [µM]	IC50 [2] [µM]
O=c1c2ccccc2nc(CN2CCC(Nc3nc4ccccc4n3Cc3ccc(F)cc3)CC2)n1O [Entry 1]	< 1	< 1	
O=C(O)c1ccc2c(=O)n(O)c(CN3CCC(Nc4nc5ccccc5n4Cc4ccc(F)cc4)CC3)nc2c1 [Entry 2]	< 1	> 10	
O=C(O)c1ccc2c(=O)n(O)c(CN3CCC(=C4c5ccc(Cl)cc5CCc5cccnc54)CC3)nc2c1 [Entry 3]	< 1	< 10	
Cc1cccc2c(=O)n(O)c(CN3CCC(=C4c5ccc(Cl)cc5CCc5cccnc54)CC3)nc12 [Entry 4]	< 10	< 10	
O=c1c2cc(F)ccc2nc(CN2CCC(=C3c4ccc(Cl)cc4CCc4cccnc43)CC2)n1O [Entry 5]	< 10	< 10	
O=c1c2cc(F)c(F)cc2nc(CN2CCC(Nc3nc4ccccc4n3Cc3ccc(F)cc3)CC2)n1O [Entry 6]	< 1	< 10	
COc1ccc2nc(CN3CCC(Nc4nc5ccccc5n4Cc4ccc(F)cc4)CC3)n(O)c(=O)c2c1 [Entry 7]	< 1	< 10	
O=c1c2cc(O)ccc2nc(CN2CCC(Nc3nc4ccccc4n3Cc3ccc(F)cc3)CC2)n1O [Entry 8]	< 0.1	< 10	
O=C(O)c1ccc2nc(CN3CCC(Nc4nc5ccccc5n4Cc4ccc(F)cc4)CC3)n(O)c(=O)c2c1 [Entry 9]	< 0.1	> 10	
O=C(O)c1ccc2nc(N3CCC(Nc4nc5ccccc5n4Cc4ccc(F)cc4)CC3)n(O)c(=O)c2c1 [Entry 10]	< 1	> 10	

The remaining lines, values ahead:

IC50 [1] [µM]	IC50 (5-LO) [µM]	IC50 [2] [µM]	Structure (SMILES)
< 10	> 10		O=C(O)c1ccc2nc(NC3CCN(c4nc5ccccc5n4Cc4ccc(F)cc4)CC3)n(O)c(=O)c2c1 [Entry 11]
< 1	< 10	< 10	O=c1c2ccccc2nc(N2CCC(Nc3nc4ccccc4n3Cc3ccc(F)cc3)CC2)n1O [Entry 12]
< 10		< 10	O=c1c2ccccc2nc(N2CCN(C(c3ccccc3)c3ccc(Cl)cc3)CC2)n1O (centres unmarked) [Entry 13]
< 1	< 10	< 10	O=c1c2cc(Br)ccc2nc(N2CCC(Nc3nc4ccccc4n3Cc3ccc(F)cc3)CC2)n1O [Entry 14]
< 0.1	< 1	< 10	O=c1c2cc(F)ccc2nc(N2CCC(Nc3nc4ccccc4n3Cc3ccc(F)cc3)CC2)n1O [Entry 15]
< 1	< 10	< 10	COc1ccc2nc(N3CCC(Nc4nc5ccccc5n4Cc4ccc(F)cc4)CC3)n(O)c(=O)c2c1 [Entry 16]
< 1		< 10	O=c1c2ccc(F)cc2nc(N2CCC(Nc3nc4ccccc4n3Cc3ccc(F)cc3)CC2)n1O [Entry 17]
< 1		< 10	O=c1c2ccc(Cl)cc2nc(N2CCC(Nc3nc4ccccc4n3Cc3ccc(F)cc3)CC2)n1O [Entry 18]
< 1	< 1	< 10	O=c1c2cc(Cl)ccc2nc(N2CCC(Nc3nc4ccccc4n3Cc3ccc(F)cc3)CC2)n1O [Entry 19]
< 1		> 10	COc1cccc2c(=O)n(O)c(N3CCC(Nc4nc5ccccc5n4Cc4ccc(F)cc4)CC3)nc12 [Entry 20]
< 1		< 10	COc1cc2nc(N3CCC(Nc4nc5ccccc5n4Cc4ccc(F)cc4)CC3)n(O)c(=O)c2cc1OC [Entry 21]
< 1		< 1	O=c1c2c(Cl)cccc2nc(N2CCC(Nc3nc4ccccc4n3Cc3ccc(F)cc3)CC2)n1O [Entry 22]
< 1		< 10	Cc1cccc2nc(N3CCC(Nc4nc5ccccc5n4Cc4ccc(F)cc4)CC3)n(O)c(=O)c12 [Entry 23]
< 1		> 10	O=c1c2cc([N+](=O)[O-])ccc2nc(N2CCC(Nc3nc4ccccc4n3Cc3ccc(F)cc3)CC2)n1O [Entry 24]
